Laboratory results published in patent publication US12503452B2 (Curza Global, LLC, priority 2019, dated 2025).
Where a name gives a salt, the structure may show the parent alone. Read-outs that look alike come from different tables or passages of the source.

Experiments:
[1] = test system: E. coli S30 extract (bacterial protein synthesis); assay: E. coli S30 extract coupled transcription-translation luciferase assay (inhibition of bacterial protein synthesis); format: biochemical; conditions: read-out: S30 IC50 (μM/% inhib.)
Outline: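 Cell-free coupled transcription-translation in E. coli S30 circular-DNA extract, with pBESTluc plasmid as template and complete amino acid mix. Eight 2-fold compound dilutions were incubated with the extract 1 h at 37 °C, chilled, then luciferase luminescence was read. % inhibition was taken relative to no-inhibitor wells; no-DNA wells gave background.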

[2] = target: Rabbit Reticulocyte Lysate (eukaryotic protein synthesis); assay: Rabbit reticulocyte lysate luciferase assay (inhibition of eukaryotic protein synthesis); format: biochemical; conditions: read-out: Rabbit reticulocyte IC50 (μM/% inhib.)
Outline: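 Nuclease-treated rabbit reticulocyte lysate translating luciferase control RNA, with complete amino acids, was incubated at 30° C. for 90 minutes with 2-fold serial compound dilutions. Luminescence was measured after adding luciferase reagent. % inhibition was relative to water controls, with no-RNA wells as background.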

E. faecalis (Ef) = assay: Broth microdilution minimum inhibitory concentration (MIC); format: cell-based; conditions: for MIC: Enterococcus faecalis, read-out: Ef + bicarb MIC
Outline: (§1)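 CLSI broth microdilution with 8 two-fold compound dilutions in CAMHB, or CAMHB plus sodium bicarbonate (6.25 or 25 mM final) or heat-inactivated human serum (0–50%). Inoculum 5×10^4 CFU/well from 0.5 McFarland cultures grown at 35±2° C; tested in triplicate.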

P. aeruginosa (Pa) = assay: as above; format: cell-based; conditions: for MIC: Pseudomonas aeruginosa, read-out: Pa MIC + bicarb
Outline: as §1

E. coli (Ec) = assay: as above; format: cell-based; conditions: Escherichia coli, read-out: E. coli + bicarb MIC
Outline: as §1

A. baumannii (Ab) = assay: as above; format: cell-based; conditions: Acinetobacter baumannii, read-out: Ab + bicarb MIC
Outline: as §1

S. aureus (Sa) = assay: as above; format: cell-based; conditions: Staphylococcus aureus, read-out: Sa + bicarb MIC
Outline: as §1

[3] = class by IC50 or % inhibition @ 1 μM
[4] = E. faecalis, growth medium supplemented with sodium bicarbonate
[5] = P. aeruginosa, growth medium supplemented with sodium bicarbonate
[6] = E. coli, growth medium supplemented with sodium bicarbonate
[7] = A. baumannii, growth medium supplemented with sodium bicarbonate
[8] = S. aureus, growth medium supplemented with sodium bicarbonate
[9] = E. faecalis, growth medium with sodium bicarbonate
[10] = P. aeruginosa, growth medium with sodium bicarbonate
[11] = E. coli, growth medium with sodium bicarbonate
[12] = A. baumannii, growth medium with sodium bicarbonate
[13] = S. aureus, growth medium with sodium bicarbonate

Compound	IC50 [1, 3]	IC50 [2, 3]	MIC (E. faecalis (Ef); [4])	MIC (P. aeruginosa (Pa); [5])	MIC (E. coli (Ec); [6])	MIC (A. baumannii (Ab); [7])	MIC (S. aureus (Sa); [8])	MIC (E. coli (Ec); [11])	MIC (A. baumannii (Ab); [12])	MIC (S. aureus (Sa); [13])	other results
CCN(Cc1ccc(-n2ccc(NC(=O)N3CCN(C(=O)C(C)(C)N)CC3)nc2=O)cc1)[C@@H]1CC[C@H](N)C1 [Compound 116]	< 0.5 µM	> 1 µM	8 to 32 µg/mL	> 32 µg/mL	< 8 µg/mL	> 32 µg/mL	8 to 32 µg/mL	–	–	–	–
CN(Cc1ccc(-n2ccc(NC(=O)N3CCN(C(=O)C(C)(C)N)CC3)nc2=O)cc1)[C@H]1CC[C@H](N)CC1 [Compound 118]	< 0.5 µM	> 1 µM	< 8 µg/mL	8 to 32 µg/mL	< 8 µg/mL	8 to 32 µg/mL	< 8 µg/mL	–	–	–	–
CC(C)(N)C(=O)N1CCN(C(=O)Nc2ccn(-c3ccc(CCN4CCCC(N)CC4)c(C(F)(F)F)c3)c(=O)n2)CC1 (centres unmarked) [Compound 142]	< 0.5 µM	> 1 µM	< 8 µg/mL	8 to 32 µg/mL	< 8 µg/mL	8 to 32 µg/mL	< 8 µg/mL	–	–	–	–
CC(Cc1ccc(-n2ccc(NC(=O)N3CCN(C(=O)C(C)(C)N)CC3)nc2=O)cc1)NC[C@H]1C[C@@H](N)C1 (some centres unmarked) [Compound 159]	< 0.5 µM	> 1 µM	8 to 32 µg/mL	> 32 µg/mL	< 8 µg/mL	> 32 µg/mL	< 8 µg/mL	–	–	–	–
CC(C)(N)C(=O)N1CCN(C(=O)Nc2ccn(-c3ccc(CCN[C@H]4CC[C@@H](N)CC4)cc3)c(=O)n2)CC1 [Compound 179]	< 0.5 µM	> 1 µM	–	–	–	–	–	< 8 µg/mL	> 32 µg/mL	< 8 µg/mL	MIC (E. faecalis (Ef); [9]): 8 to 32 µg/mL; MIC (P. aeruginosa (Pa); [10]): > 32 µg/mL
CCN(C(C)Cc1ccc(-n2ccc(NC(=O)N3CCN(C(=O)C(C)(C)N)CC3)nc2=O)cc1)C1CCC(CN)CC1 (centres unmarked) [Compound 154]	< 0.5 µM	> 1 µM	< 8 µg/mL	> 32 µg/mL	< 8 µg/mL	> 32 µg/mL	< 8 µg/mL	–	–	–	–
CC(C)(N)C(=O)N1CCN(C(=O)Nc2ccn(-c3ccc(C[C@H](N)C(=O)NC4CNC4)cc3)c(=O)n2)CC1 [Compound 147]	> 1 µM	> 1 µM	> 32 µg/mL	> 32 µg/mL	> 32 µg/mL	> 32 µg/mL	> 32 µg/mL	–	–	–	–
CC(Cc1ccc(-n2ccc(NC(=O)N3CCN(C(=O)C(C)(C)N)CC3)nc2=O)cc1)NC1CCC(CN)CC1 (centres unmarked) [Compound 152]	> 1 µM	> 1 µM	> 32 µg/mL	> 32 µg/mL	< 8 µg/mL	> 32 µg/mL	< 8 µg/mL	–	–	–	–
CC(Cc1ccc(-n2ccc(NC(=O)N3CCN(C(=O)C(C)(C)N)CC3)nc2=O)cc1)NC[C@@H]1CCC[C@@H](N)C1 (mixture of isomers) [Compound 155]	> 1 µM	> 1 µM	> 32 µg/mL	> 32 µg/mL	< 8 µg/mL	> 32 µg/mL	8 to 32 µg/mL	–	–	–	–
CC(C)(N)C(=O)N1CCN(C(=O)Nc2ccn(-c3ccc(CN[C@H]4CC[C@H](N)C4)cc3)c(=O)n2)CC1 [Compound 123]	< 0.5 µM	> 1 µM	> 32 µg/mL	> 32 µg/mL	< 8 µg/mL	> 32 µg/mL	< 8 µg/mL	–	–	–	–
CC(C)(N)C(=O)N1CCN(C(=O)Nc2ccn(-c3ccc(CN4CC[C@@H](N)[C@@H](F)C4)cc3)c(=O)n2)CC1 [Compound 209]	> 1 µM	> 1 µM	–	–	–	–	–	< 8 µg/mL	> 32 µg/mL	> 32 µg/mL	MIC (E. faecalis (Ef); [9]): > 32 µg/mL; MIC (P. aeruginosa (Pa); [10]): > 32 µg/mL
CCN(Cc1ccc(-n2ccc(NC(=O)N3CCN(C(=O)[C@@](C)(N)CO)CC3)nc2=O)cc1)C1CCC(N)CC1 (some centres unmarked) [Compound 287]	< 0.5 µM	> 1 µM	–	–	–	–	–	< 8 µg/mL	> 32 µg/mL	< 8 µg/mL	MIC (E. faecalis (Ef); [9]): < 8 µg/mL; MIC (P. aeruginosa (Pa); [10]): 8 to 32 µg/mL
CC(N)C1CCN(Cc2ccc(-n3ccc(NC(=O)N4CCN(C(=O)C(C)(C)N)CC4)nc3=O)cn2)CC1 (centres unmarked) [Compound 95]	< 0.5 µM	> 1 µM	> 32 µg/mL	> 32 µg/mL	< 8 µg/mL	> 32 µg/mL	8 to 32 µg/mL	–	–	–	–
CN(Cc1ccc(-n2ccc(NC(=O)N3CCN(C(=O)C(C)(C)N)CC3)nc2=O)cc1)[C@H]1CC[C@@H](N)CC1 [Compound 121]	< 0.5 µM	> 1 µM	< 8 µg/mL	> 32 µg/mL	< 8 µg/mL	> 32 µg/mL	< 8 µg/mL	–	–	–	–
CC(C)(N)C(=O)N1CCN(C(=O)Nc2ccn(-c3ccc(CN4CC(O)(CCN)C4)cc3)c(=O)n2)CC1 [Compound 205]	< 0.5 µM	> 1 µM	–	–	–	–	–	< 8 µg/mL	> 32 µg/mL	8 to 32 µg/mL	MIC (E. faecalis (Ef); [9]): > 32 µg/mL; MIC (P. aeruginosa (Pa); [10]): > 32 µg/mL
CC(COc1ccc(-n2ccc(NC(=O)N3CCN(C(=O)C(C)(C)N)CC3)nc2=O)cc1)N1CC[C@H](CN)C1 (some centres unmarked) [Compound 190]	< 0.5 µM	> 1 µM	–	–	–	–	–	< 8 µg/mL	> 32 µg/mL	< 8 µg/mL	MIC (E. faecalis (Ef); [9]): < 8 µg/mL; MIC (P. aeruginosa (Pa); [10]): > 32 µg/mL
CO[C@H]1C[C@@H](NCc2ccc(-n3ccc(NC(=O)N4CCN(C(=O)C(C)(C)N)CC4)nc3=O)cc2)CC[C@@H]1N [Compound 339, hydrochloride salt]	< 0.5 µM	> 1 µM	–	–	–	–	–	–	–	–	MIC (E. faecalis (Ef)): > 32 µg/mL; MIC (P. aeruginosa (Pa)): > 32 µg/mL; MIC (E. coli (Ec)): < 8 µg/mL; MIC (A. baumannii (Ab)): > 32 µg/mL; MIC (S. aureus (Sa)): 8 to 32 µg/mL
CCOC(=O)C1(CN)CN(Cc2ccc(-n3ccc(NC(=O)N4CCN(C(=O)C(C)(C)N)CC4)nc3=O)cc2)C1 [Compound 201]	> 1 µM	> 1 µM	–	–	–	–	–	> 32 µg/mL	> 32 µg/mL	> 32 µg/mL	MIC (E. faecalis (Ef); [9]): > 32 µg/mL; MIC (P. aeruginosa (Pa); [10]): > 32 µg/mL
CC(Cc1ccc(-n2ccc(NC(=O)N3CCN(C(=O)C(C)(C)N)CC3)nc2=O)cc1)N(C)C[C@H]1CCC[C@H](N)C1 (some centres unmarked) [Compound 279]	> 1 µM	> 1 µM	–	–	–	–	–	< 8 µg/mL	> 32 µg/mL	< 8 µg/mL	MIC (E. faecalis (Ef); [9]): 8 to 32 µg/mL; MIC (P. aeruginosa (Pa); [10]): > 32 µg/mL
CC(C)(N)C(=O)N1CCN(C(=O)Nc2ccn(-c3ccc(CN[C@H]4CC[C@@H](N)CC4)cc3)c(=O)n2)CC1 [Compound 120]	< 0.5 µM	> 1 µM	8 to 32 µg/mL	> 32 µg/mL	< 8 µg/mL	> 32 µg/mL	< 8 µg/mL	–	–	–	–
C[C@@H]1CCN(CCc2ccc(-n3ccc(NC(=O)N4CCN(C(=O)C(C)(C)N)CC4)nc3=O)cc2)CC[C@H]1N [Compound 27]	< 0.5 µM	> 1 µM	< 8 µg/mL	8 to 32 µg/mL	< 8 µg/mL	> 32 µg/mL	< 8 µg/mL	–	–	–	–
CCN(C[C@H]1C[C@@H](N)C1)C(C)Cc1ccc(-n2ccc(NC(=O)N3CCN(C(=O)C(C)(C)N)CC3)nc2=O)cc1 (some centres unmarked) [Compound 161]	< 0.5 µM	> 1 µM	< 8 µg/mL	> 32 µg/mL	< 8 µg/mL	8 to 32 µg/mL	< 8 µg/mL	–	–	–	–
CC(C)(N)C(=O)N1CCN(C(=O)Nc2ccn(-c3ccc(CN4CC(O)(CN)C4)cc3)c(=O)n2)CC1 [Compound 137]	< 0.5 µM	> 1 µM	> 32 µg/mL	> 32 µg/mL	< 8 µg/mL	> 32 µg/mL	8 to 32 µg/mL	–	–	–	–
CC(Cc1ccc(-n2ccc(NC(=O)N3CCN(C(=O)C(C)(C)N)CC3)nc2=O)cc1)N1CC[C@H](CN)C1 (some centres unmarked) [Compound 170]	< 0.5 µM	> 1 µM	–	–	–	–	–	< 8 µg/mL	> 32 µg/mL	8 to 32 µg/mL	Ef + bicarb MIC (E. faecalis (Ef); [9]): + (An MIC value (μg/mL) that is 32 μg/mL or greater); Pa MIC + bicarb (P. aeruginosa (Pa); [10]): ++ (An MIC value (μg/mL) that is 8 μg/mL or greater and less than 32 μg/mL)
CC(C)(N)C(=O)N1CCN(C(=O)Nc2ccn(-c3ccc(C4CO[C@@H](CN)CN4)cc3)c(=O)n2)CC1 (some centres unmarked) [Compound 352, hydrochloride salt]	–	–	–	–	–	–	–	–	–	–	IC50 ([1]; % inhibition @ 1 μM): < 0.5 µM; IC50 ([2]; % inhibition @ 1 μM): > 1 µM; MIC (E. faecalis (Ef)): > 32 µg/mL; MIC (P. aeruginosa (Pa)): > 32 µg/mL; MIC (E. coli (Ec)): 8 to 32 µg/mL; MIC (A. baumannii (Ab)): > 32 µg/mL; MIC (S. aureus (Sa)): > 32 µg/mL
CCC(N)C1CCCN(CCc2ccc(-n3ccc(NC(=O)N4CCN(C(=O)C(C)(C)N)CC4)nc3=O)cc2)C1 (centres unmarked) [Compound 23]	> 1 µM	> 1 µM	> 32 µg/mL	> 32 µg/mL	< 8 µg/mL	> 32 µg/mL	8 to 32 µg/mL	–	–	–	–
